Columns and labels:
LXRα full length (FL) = target: T1, LXRα full length (FL) (Homo sapiens, UniProt Q13133); test: LXR Gal4 reporter transient transfection assay, mammalian two-hybrid, FL-M2H Gal4α; assay type: cell-based; details: HEK293 cells; inverse agonist unless *
T1 construct: the full length (FL) proteins of LXRα (amino acids 1-447); NP005684; expressed in transfected cells; host or cells: HEK293
T1 sequence (Q13133 1-447): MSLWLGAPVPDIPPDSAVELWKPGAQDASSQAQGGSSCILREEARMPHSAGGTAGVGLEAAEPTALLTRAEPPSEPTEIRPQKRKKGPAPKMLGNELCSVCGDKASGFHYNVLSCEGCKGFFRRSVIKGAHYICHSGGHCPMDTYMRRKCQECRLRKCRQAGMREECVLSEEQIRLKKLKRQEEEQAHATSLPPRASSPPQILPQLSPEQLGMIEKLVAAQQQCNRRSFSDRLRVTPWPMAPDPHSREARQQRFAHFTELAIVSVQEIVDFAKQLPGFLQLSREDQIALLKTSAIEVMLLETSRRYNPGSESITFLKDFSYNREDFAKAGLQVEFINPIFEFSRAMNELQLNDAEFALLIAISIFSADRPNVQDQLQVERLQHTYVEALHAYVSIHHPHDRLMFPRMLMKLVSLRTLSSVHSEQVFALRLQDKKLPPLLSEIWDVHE
Procedure, shortened: (§1)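 Mammalian two-hybrid read-out: interaction of LXRα or LXRβ (full length or ligand-binding domain, NFkB activation-domain fusions) with GAL4-fused SRC1 or NCoR domains drives GAL4-responsive firefly luciferase in HEK293 cells, normalised by Renilla cotransfection. Compounds given 4 h after transfection, ≤0.2% vehicle, cells lysed after 16 h.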

[1] = target: T2, GST-LXRβ ligand-binding domain (Homo sapiens, UniProt P55055, INS174Q); test: TR-FRETβ activity assay (NCoA3 coactivator peptide recruitment); assay type: biochemical; details: 1 μM 24(S)-25-epoxycholesterol as prestimulating agonist; inverse agonist unless *
T2 construct: amino acids 156-461; NP009052; made in house; host or cells: E. coli
T2 sequence (P55055 with tags, fused parts or gaps INS174Q limits assumed): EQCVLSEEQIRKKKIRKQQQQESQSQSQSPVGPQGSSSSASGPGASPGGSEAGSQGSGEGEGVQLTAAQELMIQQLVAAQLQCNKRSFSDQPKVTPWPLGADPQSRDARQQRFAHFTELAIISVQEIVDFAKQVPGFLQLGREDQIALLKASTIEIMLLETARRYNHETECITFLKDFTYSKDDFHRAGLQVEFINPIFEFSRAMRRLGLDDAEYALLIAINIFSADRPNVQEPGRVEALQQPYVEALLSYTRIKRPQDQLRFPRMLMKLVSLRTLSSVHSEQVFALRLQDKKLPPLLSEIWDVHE
Procedure, shortened: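 Coactivator recruitment read as TR-FRET (ex 340, em 615 and 665 nm) after 1 h equilibration at 4° C, in triplicate. Mix held 76 nM GST-tagged LXRβ LBD (aa 156-461, E. coli), 400 nM biotin-NCoA3 peptide, Tb-cryptate anti-GST, streptavidin-XL665, 240 mM KCl buffer.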

LXRβ full length (FL) = target: T3, LXRβ full length (FL) (Homo sapiens, UniProt P55055, INS174Q); test: LXR Gal4 reporter transient transfection assay, mammalian two-hybrid, FL-M2H Gal4β; assay type: cell-based; details: HEK293 cells; inverse agonist unless *
T3 construct: the full length (FL) proteins of LXRα (amino acids 1-447); NP005684; NP009052; expressed in transfected cells; host or cells: HEK293
T3 sequence (P55055 with tags, fused parts or gaps INS174Q): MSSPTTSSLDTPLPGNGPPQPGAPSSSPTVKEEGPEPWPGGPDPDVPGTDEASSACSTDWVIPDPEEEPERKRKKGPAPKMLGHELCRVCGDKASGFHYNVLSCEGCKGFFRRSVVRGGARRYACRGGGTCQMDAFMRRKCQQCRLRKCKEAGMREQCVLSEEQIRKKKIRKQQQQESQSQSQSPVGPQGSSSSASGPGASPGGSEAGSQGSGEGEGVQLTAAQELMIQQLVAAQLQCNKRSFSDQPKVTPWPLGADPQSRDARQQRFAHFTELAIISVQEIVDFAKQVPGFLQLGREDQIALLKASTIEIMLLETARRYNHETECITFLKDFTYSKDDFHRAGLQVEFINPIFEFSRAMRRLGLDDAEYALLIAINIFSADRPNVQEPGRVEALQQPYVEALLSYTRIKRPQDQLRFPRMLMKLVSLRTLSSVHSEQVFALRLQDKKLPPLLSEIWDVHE
Procedure, shortened: as §1

EC50 (LXRα full length (FL))	EC50 [1]	EC50 (LXRβ full length (FL))	FRETβ [1]	Compound
100 to 1000 nM	1000 to 10000 nM	100 to 1000 nM		Cc1ccc2ccccc2c1C(=O)N(Cc1ccc(C(F)(F)F)o1)Cc1ccc(-c2cncc(S(=O)(=O)CC(=O)O)c2)cc1Cl [27/58]
1000 to 10000 nM	1000 to 10000 nM	100 to 1000 nM		Cc1cc(C)c(CN(Cc2ccc(C(F)(F)F)o2)Cc2ccc(-c3cccc(S(=O)(=O)CC(=O)O)c3)cc2C)c(C)c1 [15/1]
100 to 1000 nM	1000 to 10000 nM	100 to 1000 nM		Cc1ccc2ccccc2c1CN(Cc1ccc(-c2cc(F)c(CO)c(S(=O)(=O)CC(=O)O)c2)cc1)Cc1ccc(C(F)(F)F)o1 [22/7]
< 100 nM	< 100 nM	< 100 nM		Cc1ccc2ncnn2c1C(=O)N(Cc1ccc(-c2cccc(C(C)(C)C(=O)O)c2)cc1)Cc1ccc(C(F)(F)F)o1 [27/121]
< 100 nM	100 to 1000 nM	< 100 nM		Cc1ccc2ccc(C)c(CN(Cc3ccc(-c4cccc(C(C)(C)C(=O)O)c4)cc3)Cc3ccc(C(F)(F)F)o3)c2c1 [27/20]
100 to 1000 nM	1000 to 10000 nM	100 to 1000 nM		Cc1nc2ccccc2c(C(=O)N(Cc2ccc(-c3cccc(C(C)(C)C(=O)O)c3)cc2)Cc2ccc(C(F)(F)F)o2)c1O [27/120]
100 to 1000 nM	1000 to 10000 nM	< 100 nM		CC(C)(C(=O)O)c1cccc(-c2ccc(CN(Cc3ccc(C(F)(F)F)o3)C(=O)c3cccc4ncncc34)cc2)c1 [27/13]
< 100 nM	100 to 1000 nM	< 100 nM		Cc1nc2ccccc2c(C(=O)N(Cc2ccc(C(F)(F)F)o2)Cc2ccc(-c3cccc(C(C)(C)C(=O)O)c3)cc2C#N)c1C [27/105]
100 to 1000 nM	1000 to 10000 nM	100 to 1000 nM		COc1cc(-c2cccc(C(C)(C)C(=O)O)c2)ncc1CN(Cc1ccc(C(F)(F)F)o1)C(=O)c1c(C)ccc2ccccc12 [27/85]
< 100 nM	100 to 1000 nM	< 100 nM		Cc1ccc2ccccc2c1C(=O)N(Cc1ccc(-c2cccc(C3(C(=O)O)CC3)c2)cc1)Cc1ccc(C(F)(F)F)o1 [27/75]
1000 to 10000 nM	1000 to 10000 nM	1000 to 10000 nM		O=C(O)CS(=O)(=O)c1cccc(-c2ccc(CN(Cc3ccc(C(F)(F)F)o3)C(=O)c3cccc4ccccc34)cc2)c1 [27/41]
100 to 1000 nM	100 to 1000 nM	100 to 1000 nM		Cc1cc(C)c(CN(Cc2ccc(-c3cccc(S(=O)(=O)CC(=O)NO)c3)cc2)Cc2ccc(C(F)(F)F)o2)c(C)c1 [Example 5, N-Hydroxy-2-((4′-((((5-(trifluoromethyl)furan-2-yl)methyl)(2,46-trimethylbenzyl)amino)methyl)-[1,1′-biphenyl]-3-yl)sulfonyl)acetamide]
100 to 1000 nM	< 100 nM	< 100 nM		CC(C)(C(=O)O)c1cccc(-c2ccc(CN(Cc3ccc(C(F)(F)F)o3)C(C)(C)c3cccc4ccccc34)cc2)c1 [27/39]
100 to 1000 nM	100 to 1000 nM	< 100 nM		Cc1ccc2ccccc2c1C(=O)N(Cc1ccc(-c2cccc(C(C)(N)C(=O)O)c2)cc1)Cc1ccc(C(F)(F)F)o1 (stereo not drawn) [27/74]
< 100 nM	100 to 1000 nM	< 100 nM		COc1ncc(CN(Cc2ccc(-c3cccc(C(C)(C)C(=O)O)c3)cc2)Cc2ccc(C(F)(F)F)o2)c2ccccc12 [27/19]
< 100 nM	100 to 1000 nM	< 100 nM		Cc1ccc2nc(C)cc(C(=O)N(Cc3ccc(-c4cccc(C(C)(C)C(=O)O)c4)cc3)Cc3ccc(C(F)(F)F)o3)c2c1 [27/125]
100 to 1000 nM	100 to 1000 nM	100 to 1000 nM		CN1CCc2nc3ccccc3c(C(=O)N(Cc3ccc(-c4cccc(C(C)(C)C(=O)O)c4)cc3)Cc3ccc(C(F)(F)F)o3)c2C1 [27/80]

EC50 (LXRα full length (FL))	EC50 [1]	EC50 (LXRβ full length (FL))	FRETβ [1]	Compound
< 100 nM	< 100 nM	< 100 nM		CCc1cc(C)c(CN(Cc2ccc(-c3cccc(C(C)(C)C(=O)O)c3)cc2)Cc2ccc(C(F)(F)F)o2)c(C)c1 [27/32]
100 to 1000 nM	1000 to 10000 nM	100 to 1000 nM		CC(c1cccc2ncccc12)N(Cc1ccc(-c2cccc(S(=O)(=O)CC(=O)O)c2)cc1)Cc1ccc(C(F)(F)F)o1 (stereo not drawn) [27/8]
100 to 1000 nM	1000 to 10000 nM	100 to 1000 nM		Cc1nn2ncccc2c1C(=O)N(Cc1ccc(-c2cccc(C(C)(C)C(=O)O)c2)cc1)Cc1ccc(C(F)(F)F)o1 [27/122]
100 to 1000 nM	1000 to 10000 nM	< 100 nM		Cc1ccc2ccc(C(N)=O)cc2c1CN(Cc1ccc(-c2cccc(C(C)(C)C(=O)O)c2)cc1)Cc1ccc(C(F)(F)F)o1 [27/25]
< 100 nM	100 to 1000 nM	100 to 1000 nM		Cc1nc2cccnc2c(C(=O)N(Cc2ccc(-c3cccc(C(C)(C)C(=O)O)c3)cc2)Cc2ccc(C(F)F)o2)c1C [27/126]
< 100 nM	100 to 1000 nM	< 100 nM		Cc1nc2cccnc2c(C(=O)N(Cc2ccc(C(F)(F)F)o2)Cc2ccc(-c3cccc(C(C)(C)C(=O)O)c3)cc2F)c1C [27/114]
< 100 nM	100 to 1000 nM	< 100 nM		Cc1ccc2nc(C)c(C)c(C(=O)N(Cc3ccc(-c4cccc(C(C)(C)C(=O)O)c4)cc3)Cc3ccc(C(F)(F)F)o3)c2c1 [27/54]
< 100 nM	100 to 1000 nM	< 100 nM		Cc1ccc2ccccc2c1C(=O)N(Cc1ccc(-c2cccc(C(C)(C)CC(=O)O)c2)cc1)Cc1ccc(C(F)(F)F)o1 [27/9]
< 100 nM	< 100 nM	< 100 nM		COc1cnc2cccnc2c1C(=O)N(Cc1ccc(C(F)(F)F)o1)Cc1ccc(-c2cccc(C(C)(C)C(=O)O)c2)cc1Cl [27/124]
100 to 1000 nM	100 to 1000 nM	100 to 1000 nM		Cc1ccc2ccccc2c1C(=O)N(Cc1ccc(-c2cccc(S(=O)(=O)Cc3nnn[nH]3)c2)cc1)Cc1ccc(C(F)(F)F)o1 [Example 30, N-((3′-(((1H-Tetrazol-5-yl)methyl)sulfonyl)-1,1′-biphenyl-4-yl)methyl)-2-methyl-N-((5-(trifluoromethyl)furan-2-yl)methyl)-1-naphthamide]
100 to 1000 nM	100 to 1000 nM	100 to 1000 nM		CCOC(=O)c1ccc(CN(Cc2ncc(-c3cccc(C(C)C(=O)O)c3)cc2Cl)C(=O)c2c(C)c(C)nc3ccccc23)o1 (stereo not drawn) [27/98]
100 to 1000 nM	100 to 1000 nM	100 to 1000 nM		Cc1cc(C)c(CN(Cc2ccc(-c3cc(F)cc(S(=O)(=O)CC(=O)O)c3)cc2)Cc2ccc(C(F)(F)F)o2)c(C)c1 [12/1]
< 100 nM	100 to 1000 nM	< 100 nM		CN(C)c1ncc(CN(Cc2ccc(-c3cccc(C(C)(C)C(=O)O)c3)cc2)Cc2ccc(C(F)(F)F)o2)c2ccccc12 [27/18]
1000 to 10000 nM	1000 to 10000 nM	100 to 1000 nM		COc1cc(-c2cc(F)c(CO)c(S(=O)(=O)CC(=O)O)c2)ccc1CN(Cc1ccc(C(F)(F)F)o1)Cc1c(C)cc(C)cc1C [22/10]
< 100 nM	100 to 1000 nM	< 100 nM		Cc1cc(F)cc(C)c1C(=O)N(Cc1ccc(-c2cccc(C(C)(C)C(=O)O)c2)cc1)Cc1ccc(C(F)(F)F)o1 [27/49]
< 100 nM		< 100 nM	C*	CC(C)(C(=O)O)c1cccc(-c2ccc(CN(Cc3ccc(C(F)(F)F)o3)C(=O)C3C(C)(C)CCC3(C)C)cc2)c1 [27/97]
100 to 1000 nM	1000 to 10000 nM	< 100 nM		COc1ccc2c(CN(Cc3ccc(-c4cccc(C(C)(C)C(=O)O)c4)cc3)Cc3ccc(C(F)(F)F)o3)cc(C)cc2c1 [27/24]
